Source: patent publication US20100279942A1, “METHODS FOR TREATING MOTOR NEURON DISEASE” (priority 2004, published 2010)

How the values were obtained:
[1] = test system: F11 cells transformed with SOD1 mutant (A4T-SOD1, G85R-SOD1, G93R-SOD1) genes; assay: Neuronal cell death test, Trypan blue exclusion assay, F11 cells transformed with SOD1 mutant genes; type: cell-based, rat/mouse hybrid cell; settings: for effect of kinase inhibitor on neuroprotective effect of ADNF: 100 nM ADNF, 10 nM wortmannin, 100 μM genistein, 50 μM PD98059, 20 μM SB203580, 1 μM AG490, 5 μM KN93, 10 μM HA1004, 72 hours
Protocol: F11 cell, the hybrid cell of rat embryonic day 13 (E13) primary cultured neuronal cell with mouse neuroblastoma NTG18 cell, was cultured in Ham's F-12 medium (Life Technologies, Gaithersburg, Md.) containing 18% FBS (Hyclone, Logan, Utah) and antibiotics as previously reported (Platika D, et al., 1985, Proc Natl Acad Sci USA 82: 3499-3503; Yamatsuji T, et al., 1996, Science 272: 1349-1352; Huang P, et al., 2000, Mol Hum Reprod 6: 1069-1078; and Niikura T, et al., 2001, J Neuroscience, 21: 1902-1910).
The F11 cells (7×10^4 cells/well, 6-well plate, 12- to 16-hour culture in Ham's F-12 (18% PBS) medium) were transformed with wild-type or SOD1 mutant (A4T, G85R, and G93R) genes by lipofection (0.5 μg of each SOD1 gene; 1 μl of LipofectAMINE; 2 μl of PLUS Reagent) under serum-free conditions for 3 hours and cultured for 2 hours in Ham's F-12 (18% PBS) medium. The medium was replaced by Ham's F-12 (10% PBS) in the presence or absence of ADNF. After 72 hours of the transformation, cell mortality was measured by Trypan blue exclusion assay as previously reported (Hashimoto Y, et al., 2001, J Neurosci 21: 9235-9245; and Hashimoto Y, et al, 2001, Proc Natl Acad Sci USA 98: 6336-6341). […]
Intracellular signaling by ADNF was examined. F11 cells were transformed with pEF-BOS or SOD1 mutant (A4T-SOD1, G85R-SOD1, or G93R-SOD1) cDNA and reacted with 10 nM wortmannin (PI3 kinase inhibitor), 100 μM genistein (tyrosine kinase inhibitor), 50 μM PD98059 (MEK inhibitor), 20 μM SB203580 (p38 MAPK inhibitor), 1 μM AG490 (JAK kinase inhibitor), 5 μM KN93 (calcium/calmodulin-dependent kinase inhibitor), or 10 μM HA1004 (protein kinase A inhibitor) in the presence or absence of 100 nM ADNF. After 72 hours of the transformation, cell mortality was measured by Trypan blue exclusion assay.
The effect of KN93 on the neuroprotective action of ADNF was examined. […] After 72 hours of the transformation, cell mortality was measured by Trypan blue exclusion assay. […]

SOD1 proteins = assay: Immunoblot analysis of SOD1 protein expression in transformed cells; type: cell-based, mouse and rat/mouse hybrid; settings: KN93 or KN92 treatment; F11 cells
Protocol: Immunoblot analysis was conducted according to the previous report (Hashimoto Y, et al., supra, p. 6336-6341). To examine the protein expression of wild-type or SOD1 mutant genes, lysates from the cells transfected with each SOD1 gene were subjected to SDS-PAGE (20 μg/lane). After electrical blotting to a PVDF membrane, the membrane was blocked by a typical method and reacted with an anti-SOD1 antibody and then with a 1:5000-diluted horseradish peroxidase-conjugated anti-mouse IgG antibody (Bio-Rad Lab. Hercules, Calif., USA). The antibody-reactive bands were detected by ECL (Amersham Pharmacia Biotech, Uppsala, Sweden).

[2] = test system: neuronal cell death caused by amyloid β; settings: cited from earlier work
[3] = test system: neuronal cell death induced by SOD1 mutant genes; settings: Hashimoto et al.; cited from earlier work
[4] = test system: F11 cells transformed with SOD1 mutant (A4T-SOD1, G85R-SOD1, G93R-SOD1) genes; assay: Neuronal cell death test, Trypan blue exclusion assay, F11 cells transformed with SOD1 mutant genes; type: cell-based, rat/mouse hybrid cell; settings: 10 pM ADNF8, 72 hours

O=c1c(-c2ccc(O)cc2)coc2cc(O)cc(O)c12 [genistein]
effect of kinase inhibitor on neuroprotective effect of ADNF [1]: inhibited

COc1ccc(S(=O)(=O)Nc2ccccc2CN(C)C/C=C/c2ccc(Cl)cc2)cc1 [KN92]
influence on ADNF activity ([1]; 5 μM KN92, 100 fM ADNF): did not influence ADNF activity | protein expression of SOD1 mutant detected by immunoblot (SOD1 proteins): not affected

COc1cccc(-c2cc(=O)c3ccccc3o2)c1N [PD98059]
effect of kinase inhibitor on neuroprotective effect of ADNF [1]: not affected

S14G Humanin (MAPRGFSCLLLLTGEIDLPVKRRA; Humanin; UniProt Q8IVG9 1-24, looked up, variant S14G) [HNG, comparison peptide reported to prevent Alzheimer's disease-associated neuronal cell death]
cell mortality induced by SOD1 mutant genes ([1]; 10 nM HNG, A4T-, G85R-, G93R-SOD1, 72 hours): could not reduce the cell death induced by the SOD1 mutant genes | neuronal cell death caused by some Alzheimer's disease-associated disorders ([2]; Hashimoto et al.): prevent neuronal cell death | neuronal cell death induced by SOD1 mutant genes [3]: fail to prevent neuronal cell death

C[S+]([O-])c1ccc(-c2nc(-c3ccncc3)c(-c3ccc(F)cc3)[nH]2)cc1 (stereo not shown) [SB203580]
effect of kinase inhibitor on neuroprotective effect of ADNF [1]: not affected

IPALDSLKPANEDQKIGIEI [IPAL peptide]
influence on cell death caused by SOD1 mutant genes ([1]; 10 μM IPAL peptide): did not influence the cell death caused by the SOD1 mutant genes | influence on cell death at the control level ([1]; 10 μM IPAL peptide itself, pEF-BOS): did not influence the cell death at the control level | effect on inhibitory activity of ADNF against cell death caused by SOD1 mutant genes ([1]; 10 μM IPAL peptide, 100 fM ADNF, 72 hours): did not inhibit the inhibitory activity of ADNF | effect on protective effect of ADNF on cell death induced by amyloid β ([2]; Zamostiano et al. 1999): inhibit the protective effect of ADNF

ALLRSIPA [ADNF8, ADNF which lost one N-terminal amino acid residue]
effectiveness relative to ADNF (fold less) ([1]; inhibition of neuronal cell death caused by SOD1 mutant genes): 100 fold | inhibition of cell death caused by G93R-SOD1 [4]: completely inhibited cell death | effect against neuronal cell death caused by amyloid β or TTX ([2]; Brenneman et al. 1998): totally ineffective

COc1ccc(S(=O)(=O)N(CCO)c2ccccc2CN(C)C/C=C/c2ccc(Cl)cc2)cc1 [KN93]
inhibition of neuroprotective action of ADNF ([1]; 50 nM KN93, 100 fM ADNF): partially inhibited | effect of kinase inhibitor on neuroprotective effect of ADNF [1]: inhibited | inhibition of neuroprotective action of ADNF ([1]; 1 μM KN93, 100 fM ADNF): almost completely inhibited | influence on cell mortality at the control level ([1]; KN93 at any of the concentrations (10 nM to 5 μM)): no influence | protein expression of SOD1 mutant detected by immunoblot (SOD1 proteins): not affected

N#C/C(=C/c1ccc(O)c(O)c1)C(=O)NCc1ccccc1 [AG490]
effect of kinase inhibitor on neuroprotective effect of ADNF [1]: not affected

NC(N)=NCCNS(=O)(=O)c1cccc2cnccc12 [HA1004]
effect of kinase inhibitor on neuroprotective effect of ADNF [1]: not affected
